Laboratory results taken from US20260159486A1, “BENZO[H]QUINAZOLINE-4-AMINE DERIVATIVES FOR THE TREATMENT OF CANCER” (Redona Therapeutics, Inc., priority 2021, published 2026).

Legend:
[1] = target: T1, recombinant human CLK3 (Homo sapiens, UniProt P49761); assay: CLK3 kinase assay (LANCE Ultra); assay type: biochemical; conditions: CLK3 0.5 nM, ATP 300 μM, 3 hours at 30° C.
T1 construct: purchased Thermo Fisher Scientific PV3826
Description: CLK3 kinase activity was measured using the LANCE® Ultra technology (PerkinElmer) essentially as recommended by the supplier. Briefly, 2.5 μL of test sample at 4× the desired final concentration in 4% DMSO were dispensed into white, low volume, round bottom, 384 well plates (Corning, cat. no. 4512). 5 μL of a mixture containing recombinant human CLK3 (Thermo Fisher Scientific, cat. no. PV3826) and the labeled peptide substrate ULight™-CREBtide (PerkinElmer, cat. no. TRF0107) prepared in 1.33× kinase buffer (Thermo Fisher Scientific, cat. no. PV3189) were then added. Finally, the reactions were started by adding 2.5 μL of a 4× solution of ATP in kinase buffer. The plates were sealed with adhesive foils and incubated for 3 hours at 30° C. in the dark. The final concentrations of CLK3, ULight™-CREBtide, and ATP were 0.5 nM, 50 nM, and 300 μM, respectively. 5 μL of 40 mM EDTA were then added to terminate the reactions. The Eu-anti-phospho-CREB antibody (PerkinElmer, cat. no. TRF0200) diluted in LANCE® detection buffer (PerkinElmer, cat. no. CR97) was then added to a final concentration of 2 nM and the reactions were incubated for 1 hour at room temperature in the dark. The signals were measured using a Synergy 4 reader (BioTek) with a 320/80 nm filter for the excitation and 620/10 nm and 665/8 nm filters for the donor and acceptor emission, respectively. Relative inhibition values were calculated by normalizing the raw data using solvent control wells (0% inhibition) and wells that received no ATP (100% inhibition). IC50 values were calculated by fitting the concentration-response data to a sigmoidal 4-parameter logistic model. IC50 values for CLK3 are determined from duplicate measurements at ten different concentrations (serial 1:3 dilutions).

[2] = system: MDA-MB-231 cells; assay: MDA-MB-231 proliferation assay; assay type: cell-based; conditions: Homo sapiens, MDA-MB-231, 72 h, YO-PRO-1 Iodide readout
Source text: (§1) MDA-MB-231 and CAL-51 Proliferation Assay
(§2) Cells (MDA-MB-231 (American Type Culture Collection (ATCC), #HTB-26) or CAL-51 (Deutsche Sammlung von Mikroorganismen und Zellkulturen (DSMZ), #ACC302) as applicable) were cultivated in DMEM High Glucose (4.5 g/L) with L-Glutamine (BioConcept, cat. no. 1-26F03-I) supplemented with 1% Na-pyruvate (Sigma, cat. no. S8636), 1% Penicillin-Streptomycin (BioConcept, cat. no. 4-01F00H), and 10% FBS (Sigma, cat. no. F9665) using standard techniques. Cells were seeded in black, clear-bottom 384 well plates for tissue culture (Greiner Bio-One, cat. no. 781091) at a density of 750 cells per well in 20 μL medium and the plates were incubated overnight at 37° C. with 5% CO2 prior to treatment. Experimental compounds were serially diluted in DMSO to 200× the desired final concentrations. The solutions were then diluted 1:40 with culture medium and 5 μL aliquots were mixed into the wells containing the cells. The final concentration of DMSO was 0.5%. The plates were incubated for 72 hours and cell numbers were then measured using YO-PRO™-1 Iodide (ThermoFisher Scientific, cat. no. Y3603) essentially as recommended by the manufacturer. Briefly, a 12.5 μM solution of YO-PRO™_1 Iodide in 5× YO—PRO buffer (100 mM Na-citrate, 130 mM NaCl, pH 4) was combined with an equal volume of lysis buffer (0.6% NP-40, 30 mM EDTA, 30 mM EGTA, 0.33× YO—PRO buffer) and 12.5 μL of the mixture were dispensed into each well. The plates were incubated at room temperature in the dark for 30 minutes. Fluorescence intensity signals were then measured on a Synergy 4 reader (BioTek) using 485/20 nm and 530/25 nm filters for the excitation and emission, respectively. Relative proliferation values were calculated by normalizing the raw data using DMSO-treated cells (100% proliferation) and the signals obtained from cells that were evaluated at the time of compound addition (0% proliferation). The concentration-response data were fitted to a sigmoidal 4-parameter logistic model with the maximum constrained to 100%. GI50 values were calculated from the curves as the compound concentrations reducing proliferation to 50%.

[3] = system: CAL-51 cells; assay: CAL-51 proliferation assay; assay type: cell-based; conditions: Homo sapiens, CAL-51, 72 h, YO-PRO-1 Iodide readout
Source text: as §1, §2

T1 sequence (P49761 whole entry): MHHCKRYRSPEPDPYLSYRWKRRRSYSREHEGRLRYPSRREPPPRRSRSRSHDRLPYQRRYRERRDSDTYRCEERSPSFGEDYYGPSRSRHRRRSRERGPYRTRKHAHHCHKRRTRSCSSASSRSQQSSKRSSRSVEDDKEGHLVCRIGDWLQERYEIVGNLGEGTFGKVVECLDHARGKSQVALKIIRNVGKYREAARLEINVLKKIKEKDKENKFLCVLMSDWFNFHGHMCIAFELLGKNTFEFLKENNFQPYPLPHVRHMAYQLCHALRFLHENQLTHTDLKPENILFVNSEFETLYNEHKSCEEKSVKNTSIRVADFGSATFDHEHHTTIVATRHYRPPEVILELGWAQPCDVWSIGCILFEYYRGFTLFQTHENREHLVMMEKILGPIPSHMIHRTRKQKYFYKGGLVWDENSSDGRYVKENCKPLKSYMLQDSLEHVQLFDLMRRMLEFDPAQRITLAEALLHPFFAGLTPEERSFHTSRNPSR

Row | Structure (SMILES) | IC50 [1] [nM] | GI50 [2] [nM] | GI50 [3] [nM]
1 | CN(CCC#N)c1c(OC2CCCNCC2)ccc2c1CC(C)(C)c1c(N)ncnc1-2 (stereo not drawn) [Example 78, 3-[[4-amino-8-(azepan-4-yloxy)-5,5-dimethyl-6H-benzo[h]quinazolin-7-yl]-methyl-amino]propanenitrile] | < 30 | < 100 | < 100
2 | COc1ccc2c(c1N1CCC(C#N)C1)CC(C)(C)c1c(N)ncnc1-2 (stereo not drawn) [Example 55, 1-(4-amino-8-methoxy-5,5-dimethyl-6H-benzo[h]quinazolin-7-yl)pyrrolidine-3-carbonitrile] | 30 to 100 | < 100 | < 100
3 | CN(Cc1cocn1)c1c(O[C@H]2CC[C@H](N)CC2)ccc2c1CC(C)(C)c1c(N)ncnc1-2 [Example 105, 8-(trans-4-aminocyclohexoxy)-N7,5,5-trimethyl-N7-(oxazol-4-ylmethyl)-6H-benzo[h]quinazoline-4,7-diamine] | 101 to 1000 | 100 to 2000 | 100 to 2000
4 | COCCN[C@H]1CC[C@H](Oc2ccc3c(c2N(C)CCC#N)CC(C)(C)c2c(N)ncnc2-3)CC1 [Example 53, 3-[[4-amino-8-[trans-4-(2-methoxyethylamino)cyclohexoxy]-5,5-dimethyl-6H-benzo[h]quinazolin-7-yl]-methyl-amino]propanenitrile] | < 30 | < 100 | < 100
5 | Nc1ncnc2c1C1(CCCC1)Cc1c-2ccc(O[C@H]2CC[C@@H](N)CC2)c1NCC(=O)O [Example 79, 2-[[4-amino-8-(cis-4-aminocyclohexoxy)spiro[6H-benzo[h]quinazoline-5,1′-cyclopentane]-7-yl]amino]acetic acid] | 30 to 100 | > 2000 | > 2000
6 | CC1(C)Cc2c(ccc(Br)c2N(CCC#N)C[C@@H]2CNC(=O)O2)-c2ncnc(N)c21 [Example 132, 3-[(4-amino-8-bromo-5,5-dimethyl-6H-benzo[h]quinazolin-7-yl)-[[(5S)-2-oxooxazolidin-5-yl]methyl]amino]propanenitrile] | < 30 | 100 to 2000 | 100 to 2000
7 | COc1ccc2c(c1NCc1nnc(C(C)F)o1)CC(C)(C)c1c(N)ncnc1-2 (stereo not drawn) [Example 122, N7-[[5-(1-fluoroethyl)-1,3,4-oxadiazol-2-yl]methyl]-8-methoxy-5,5-dimethyl-6H-benzo[h]quinazoline-4,7-diamine] | 101 to 1000 | > 2000 | 100 to 2000
8 | CC1(C)Cc2c(ccc(O[C@H]3CC[C@H](N)CC3)c2N2CCCCC2)-c2ncnc(N)c21 [Example 9, 8-(trans-4-aminocyclohexoxy)-5,5-dimethyl-7-(1-piperidyl)-6H-benzo[h]quinazolin-4-amine] | < 30 | 100 to 2000 | < 100
9 | C/C(=C\CO)c1c(O[C@H]2CC[C@H](N)CC2)ccc2c1CC(C)(C)c1c(N)ncnc1-2 [Example 98, (E)-3-[4-amino-8-(trans-4-aminocyclohexoxy)-5,5-dimethyl-6H-benzo[h]quinazolin-7-yl]but-2-en-1-ol] | < 30 | 100 to 2000 | < 100
10 | CN1CCOc2ccc3c(c21)CC(C)(C)c1c(N)ncnc1-3 [Example 4, 4,6,6-trimethyl-3,5-dihydro-2H-quinazolino[7,8-f][1,4]benzoxazin-7-amine] | 30 to 100 | 100 to 2000 | 100 to 2000

Continued, in another order:

Row | IC50 [1] [nM] | GI50 [2] [nM] | Structure (SMILES) | GI50 [3] [nM]
11 | < 30 | 100 to 2000 | CN(c1c(O[C@H]2CC[C@H](N)CC2)ccc2c1CC(C)(C)c1c(N)ncnc1-2)S(=O)(=O)CCC#N [Example 74, N-[4-amino-8-(trans-4-aminocyclohexoxy)-5,5-dimethyl-6H-benzo[h]quinazolin-7-yl]-2-cyano-N-methyl-ethanesulfonamide] | < 100
12 | < 30 | < 100 | CC(CCC#N)c1c(O[C@H]2CC[C@H](N)CC2)ccc2c1CC(C)(C)c1c(N)ncnc1-2 (stereo partly drawn) [Example 97, 4-[4-amino-8-(trans-4-aminocyclohexoxy)-5,5-dimethyl-6H-benzo[h]quinazolin-7-yl]pentanenitrile] | < 100
13 | 101 to 1000 | 100 to 2000 | CN(CCC(C)(C)O)c1c(O[C@H]2CC[C@H](N)CC2)ccc2c1CC(C)(C)c1c(N)ncnc1-2 [Example 111, 4-[[4-amino-8-(trans-4-aminocyclohexoxy)-5,5-dimethyl-6H-benzo[h]quinazolin-7-yl]-methyl-amino]-2-methyl-butan-2-ol] | 100 to 2000
14 | 101 to 1000 | 100 to 2000 | CCOCCN(C)c1c(O[C@H]2CC[C@H](N)CC2)ccc2c1CC(C)(C)c1c(N)ncnc1-2 [Example 36, 8-(trans-4-aminocyclohexoxy)-N7-(2-ethoxyethyl)-N7,5,5-trimethyl-6H-benzo[h]quinazoline-4,7-diamine] | 100 to 2000
15 | 101 to 1000 | > 2000 | CN(C(=O)CO)c1c(O[C@H]2CC[C@H](N)CC2)ccc2c1CC(C)(C)c1c(N)ncnc1-2 [Example 41, N-[4-amino-8-(trans-4-aminocyclohexoxy)-5,5-dimethyl-6H-benzo[h]quinazolin-7-yl]-2-hydroxy-N-methyl-acetamide] | > 2000
16 | < 30 | < 100 | CC(CCO)c1c(O[C@H]2CC[C@H](N)CC2)ccc2c1CC(C)(C)c1c(N)ncnc1-2 (stereo partly drawn) [Example 92, 3-[4-amino-8-(trans-4-aminocyclohexoxy)-5,5-dimethyl-6H-benzo[h]quinazolin-7-yl]butan-1-ol] | < 100
17 | 101 to 1000 | 100 to 2000 | COCCNc1c(O[C@H]2CC[C@H](N)CC2)ccc2c1CC(C)(C)c1c(N)ncnc1-2 [Example 18, 8-(trans-4-aminocyclohexoxy)-N7-(2-methoxyethyl)-5,5-dimethyl-6H-benzo[h]quinazoline-4,7-diamine] | 100 to 2000
18 | < 30 | 100 to 2000 | CC1(C)Cc2c(ccc(O[C@H]3CC[C@H](N)CC3)c2CCCC#N)-c2ncnc(N)c21 [Example 81, 4-[4-amino-8-(trans-4-aminocyclohexoxy)-5,5-dimethyl-6H-benzo[h]quinazolin-7-yl]butanenitrile] | < 100
19 | < 30 | < 100 | CN[C@H]1CC[C@H](Oc2ccc3c(c2N(C)CCC#N)CC(C)(C)c2c(N)ncnc2-3)CC1 [Example 99, 3-[[4-amino-5,5-dimethyl-8-[trans-4-(methylamino)cyclohexoxy]-6H-benzo[h]quinazolin-7-yl]-methyl-amino]propanenitrile] | < 100
20 | 30 to 100 | 100 to 2000 | CCCOc1c(O[C@H]2CC[C@H](N)CC2)ccc2c1CC(C)(C)c1c(N)ncnc1-2 [Example 19, 8-(trans-4-aminocyclohexoxy)-5,5-dimethyl-7-propoxy-6H-benzo[h]quinazolin-4-amine] | 100 to 2000
21 | < 30 | < 100 | C#CCCN(C)c1c(O[C@H]2CC[C@H](N)CC2)ccc2c1CC(C)(C)c1c(N)ncnc1-2 [Example 54, 8-(trans-4-aminocyclohexoxy)-N7-but-3-ynyl-N7,5,5-trimethyl-6H-benzo[h]quinazoline-4,7-diamine] | < 100
